Source: PubChem BioAssay (NCI)
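Following 48 hours of exposure in 96-well plates, responses at five concentrations were used to interpolate endpoints linearly. TGI denotes the concentration required for complete inhibition of growth.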

Tests used:
Assay in all cases: inhibition of tumour cell growth, NCI panel, 48 h
TK-10 renal = tested on: TK-10 renal
MDA-N = tested on: MDA-N
A549 NSCLC = tested on: A549 NSCLC
EKVX NSCLC = tested on: EKVX NSCLC
SK-MEL-2 melanoma = tested on: SK-MEL-2 melanoma
MALME-3M melanoma = tested on: MALME-3M melanoma
MOLT-4 leukemia = tested on: MOLT-4 leukemia
A498 renal = tested on: A498 renal
RXF 393 renal = tested on: RXF 393 renal
COLO 205 colon = tested on: COLO 205 colon

SMILES	TGI (TK-10 renal) [µM]	TGI (MDA-N) [µM]	TGI (A549 NSCLC) [µM]	TGI (EKVX NSCLC) [µM]	TGI (SK-MEL-2 melanoma) [µM]	TGI (MALME-3M melanoma) [µM]	TGI (MOLT-4 leukemia) [µM]	TGI (A498 renal) [µM]	TGI (RXF 393 renal) [µM]	TGI (COLO 205 colon) [µM]
O=S(=O)(c1ccc(Br)cc1)n1c2ccc(Br)cc2c2nc3ccccc3nc21	> 100	> 100	> 100	> 100	> 100	> 100	> 100	> 100	53	> 100
C/C=C/[C@@]1(OC(=O)c2ccccc2)C[C@@H]2CCCC[C@@H]21	36	33.4	36.7	31.7	30.3	35.3	40.2			
CO/C(=N\N=C\c1cc(OC)ccc1OC)c1ccncc1	> 10	> 10	> 10		> 10	> 10	> 10	> 10	> 10	> 10
CN(C)CCNc1ccc(C(=O)NCCCN(C)CCCNC(=O)c2ccc(NCCN(C)C)c3c(=O)c4ccccc4[nH]c23)c2[nH]c3ccccc3c(=O)c12	6.94	0.583	0.318	3.8	0.414	0.844	2.78	1.12	0.912	0.727
CCOC(=O)c1cnc(-n2[nH]c(C)c(CCO)c2=O)[nH]c1=O	> 100	> 100	> 100	> 100	> 100	> 100	> 100		> 100	> 100
CC1=NN(c2nc(N)nc(-c3ccccc3S(N)(=O)=O)n2)C(C)(C)C1	> 100	> 100		> 100	57		79.8	64.5	> 100	
O=C1CSC2(CC(/C=C/c3ccccc3)=NN2c2cccc(S(=O)(=O)O)c2)N1c1nc2ccccc2s1 (configuration not stated)	46.9	> 100	> 100	> 100	49.5	> 100	91.5	64.3	51.7	> 100
O=C(Cn1c(=O)oc2ccc(C(=O)c3ccc(F)cc3)cc21)c1ccc([N+](=O)[O-])cc1	> 100	60.9	> 100		86.2	> 100	> 100	> 100	> 100	> 100
CC[C@@]1(O)C(=O)OCc2c1cc1n(c2=O)Cc2c-1nc1ccccc1c2/C=N\NC(=O)C(N)CC(C)C (some centres not stated)	> 100	> 100	2.16	> 100	2.99	7.31	0.106	0.263	0.154	12.1
O=C1c2ccccc2C2CNC1(O)c1ccccc12 (configuration not stated)	> 100	> 100	> 100	> 100	> 100	> 100	> 100	> 100	> 100	> 100
O=C1Oc2ccccc2C(=O)/C1=C/N1C(=O)N/C(=C\c2ccccc2O)C1=O	> 100	> 100	> 100	> 100	> 100	> 100	> 100	> 100	> 100	> 100
O=C(COc1ccc(OCC(=O)N2C(=O)CC(=O)N(c3ccccc3)C2=S)cc1)N1C(=O)CC(=O)N(c2ccccc2)C1=S	> 100	> 100	> 100	> 100	> 100	> 100	> 100	> 100	95	> 100
Cc1[nH]c2ncn(/N=C/c3ccccc3O)c(=N)c2c1Cc1ccccc1	> 100	93.8	> 100	> 100	83.9		> 100	> 100	> 100	> 100
C=C(C)C(=O)CC[C@@H](C)[C@H]1[C@@H](OC2OC(CO)C(O)C(O)C2O)C[C@@]2(C)[C@@H]3C[C@H](O)C4C(C)(C)[C@@H](OC5OC(CO)C(O)C(O)C5O)CC[C@@]45C[C@@]35CC[C@]12C (some centres not stated)	> 100	55.6	> 100	> 100	> 100	> 100	> 100	> 100		> 100
O=C1C=CC2CCC1C2 (configuration not stated)	> 100	> 100	> 100	> 100	> 100	> 100	> 100	> 100		> 100
O=c1cnn(C/C=C\CO)c(=O)[nH]1	> 100	> 100	> 100	> 100	> 100	> 100		> 100	> 100	> 100
COCOc1ccc(C(=O)C(C)c2ccc(OCOC)cc2OCOC)c(O)c1 (configuration not stated)	> 100	> 100	> 100	> 100		> 100	> 100	> 100	> 100	> 100

SMILES	TGI (TK-10 renal) [µM]	TGI (MDA-N) [µM]	TGI (A549 NSCLC) [µM]	TGI (EKVX NSCLC) [µM]	TGI (SK-MEL-2 melanoma) [µM]	TGI (MALME-3M melanoma) [µM]	TGI (MOLT-4 leukemia) [µM]	TGI (A498 renal) [µM]	TGI (RXF 393 renal) [µM]	TGI (COLO 205 colon) [µM]
COc1ccc2oc(=N)c(C(=O)Nc3cccc4ccccc34)cc2c1	51.1	18.8	> 100	> 100	85.7	49.8		39.2	20	> 100
C=CCNC(=S)Nc1sc2c(c1C(=O)OCC)CC(C)CC2 (configuration not stated)	63.7	> 100	60.8	65.9	48.4	45.8	80		83.9	35.6
CCc1nn(CN2CCN(C)CC2)c(=S)n1/N=C\c1ccc(-c2ccc([N+](=O)[O-])cc2)o1	71.3	> 100	> 100	> 100	> 100	> 100	> 100	54.7	82.5	
COC(=O)c1cn(CCCC(=O)O)nn1	> 100	> 100	> 100	> 100	> 100	> 100	> 100		> 100	> 100
COc1ccc(-c2nc(N)c(C#N)c3c2CCS(=O)(=O)c2ccc(C)cc2-3)cc1OC	> 100	51	> 100		85.2	> 100		62.5		79.5
Cc1ccc(C2CC(=O)CC(c3ccc(C)cc3)C23C(=O)NC(=O)NC3=O)cc1 (configuration not stated)	> 100	> 100		> 100	> 100	> 100	> 100		> 100	> 100
Cc1nc2c(=S)[nH]ncc2[nH]1	> 100	> 100	> 100	> 100	> 100	> 100		> 100		> 100
Nc1nc(N)c2ncn(CC3CCC(CO)C3)c2n1 (configuration not stated)	> 100	> 100	> 100	> 100	> 100		> 100	> 100	> 100	> 100
O=C(CP(c1ccccc1)c1ccccc1)c1cccc(C(=O)CP(c2ccccc2)c2ccccc2)c1	> 100	> 100	> 100	> 100	> 100		48		> 100	> 100
Nc1nc2c(=O)c3ccccc3sc2s1	> 100	> 100	> 100	> 100	> 100		> 100	> 100	> 100	> 100
Cc1ccc(S(=O)(=O)c2scc(-c3ccccc3)c2C)cc1	> 100	> 100	> 100	> 100	> 100	> 100	> 100		> 100	> 100
O=C(O)[C@H]1[C@@H](C2CCCCC2)O[C@@H](C2CCCCC2)O[C@H]1C(F)(F)F	> 100	30.7	42.4	43.1		73.3	45	35.9	48.4	77.9
CCC(C)[C@@H](NCc1ccccc1)[C@H](OCc1ccccc1)[C@@H]1COC(C)(C)O1 (some centres not stated)	32.7	> 100	78.8	42.7	35	45.8	62.3			36.6
CCOC(=O)CCCn1nnc(C(=O)OCC)c1C(=O)OCC	> 100	> 100	> 100	> 100	> 100	> 100	> 100		> 100	> 100
O=C1c2ccccc2C(=O)N1n1c(Cc2ccccc2)n[nH]c1=O	> 100	> 100	> 100	> 100	> 100	> 100	> 100	> 100		> 100
C1CC2=C(C1)[Se]C(=C1Sc3nsnc3S1)[Se]2	> 100	62	> 100	> 100	> 100	> 100	> 100			> 100
CCOC(=O)c1cn(-c2ccccc2)c(=S)n2c1nc1ccccc12	> 100	> 100	> 100	> 100	> 100		17.5	> 100	> 100	> 64.8
